The results in this text go back to US4469680A, “Iodinated vasopressin antagonists” (SmithKline Beckman Corporation, priority 1983, dated 1984).

Starred links: 1 amine or outer side, 2 acyl side, 3 side chain; linkers in the order of their positions; H or OH if unused. Positions of bridges follow the written chain, without caps; N, C: chain ends. Non-standard residues stand in square brackets, D forms with d. Residues, ends and D or L forms follow the SMILES beside them. dTyr(3,5-I2) = N[C@H](Cc1cc(I)c(O)c(I)c1)C(=O)O; dTyr(3-I) = N[C@H](Cc1ccc(O)c(I)c1)C(=O)O; X1 = O=C(CC1(S[*:2])CCCCC1)[*:1]

The target of this assay is vasopressin receptors (V2 -receptors) (Sus scrofa, UniProt P32307). In words: biochemical. The source says:
These values represent total and non-specific binding, respectively.

Chain of vasopressin receptors (V2 -receptors) (P32307 whole entry): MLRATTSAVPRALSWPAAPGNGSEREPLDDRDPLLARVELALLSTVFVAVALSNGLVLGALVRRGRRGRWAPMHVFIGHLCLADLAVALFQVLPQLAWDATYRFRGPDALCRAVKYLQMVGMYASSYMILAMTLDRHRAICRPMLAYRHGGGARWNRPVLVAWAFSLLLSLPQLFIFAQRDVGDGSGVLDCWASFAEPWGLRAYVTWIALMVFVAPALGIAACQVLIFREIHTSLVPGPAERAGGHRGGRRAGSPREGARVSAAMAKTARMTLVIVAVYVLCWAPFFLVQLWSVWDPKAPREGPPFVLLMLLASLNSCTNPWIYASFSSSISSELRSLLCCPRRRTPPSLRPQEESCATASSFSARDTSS

`CC(C)[C@@H]1NC(=O)[C@H](Cc2ccccc2)NC(=O)[C@@H](Cc2ccc(O)cc2)NC(=O)CC2(CCCCC2)SSC[C@@H](C(=O)N2CCC[C@H]2C(=O)N[C@@H](CCCN=C(N)N)C(=O)NCC(N)=O)NC(=O)[C@H](CC(N)=O)NC1=O` [A, [Pmp^1, D-Tyr^2, Val^4]AVP, reference compound] ([dY]FVNCPRG-NH2; linker N-5 via X1) showed a Kb of 100 nM. As to `CC(C)[C@@H]1NC(=O)[C@H](Cc2ccccc2)NC(=O)[C@@H](Cc2ccc(O)c(I)c2)NC(=O)CC2(CCCCC2)SSC[C@@H](C(=O)N2CCC[C@H]2C(=O)N[C@@H](CCCNC(=N)N)C(=O)NCC(N)=O)NC(=O)[C@H](CC(N)=O)NC1=O` [B, [Pmp^1, D-Tyr(I)^2, Val^4]AVP] ([dTyr(3-I)]FVNCPRG-NH2; linker N-5 via X1), the Kb was 120 nM.

`CC(C)[C@@H]1NC(=O)[C@H](Cc2ccccc2)NC(=O)[C@@H](Cc2cc(I)c(O)c(I)c2)NC(=O)CC2(CCCCC2)SSC[C@@H](C(=O)N2CCC[C@H]2C(=O)N[C@@H](CCCNC(=N)N)C(=O)NCC(N)=O)NC(=O)[C@H](CC(N)=O)NC1=O` [C, [Pmp^1, D-Tyr(I2)^2, Val^4]AVP] ([dTyr(3,5-I2)]FVNCPRG-NH2; linker N-5 via X1) displayed a Kb of 2400 nM.
